The conditions of data set [1]: compared to cisplatin; cited from earlier work.
The test system of data set [2] is testicular cancer. To be noted: cited from earlier work.
The test system of data set [3] is deoxyguanosine monophosphate (dGMP). In words: Nucleotide binding experiment by 1H NMR, dGMP. Conditions: molar ratio 1:3.5, 37 °C, 66 h, DMF-d7/D2O, compared to cisplatin. An excerpt:
(§1) Formation of DNA cross-links is the crucial part of the platinum cytotoxicity mechanism. To study diaplatin complex 1 activity on nucleotides in comparison to cisplatin we chose guanosine monophosphate (GMP) and deoxyguanosine monophosphate (dGMP) as substrates (Fig 6). The reaction between platinum complexes and GMP or dGMP causes substitution of their leaving group ligands with nucleotide forming monoadducts that quickly lose a second leaving ligand forming bisadducts. The N7 atom of the purine fragment is known to be the preferred site of attachment to platinum, thus causing easily observable downfield NMR shifts of the adjacent H8 atom. The collected ^1H NMR data during incubation of the reaction mixtures provide time-dependent changes of the H8 atom integral, thereby providing insights into the binding rates between the studied complexes (Fig 7).
(§2) A platinum complex solution in DMF-d7 (0.27 mL, 6.9 mM) was reacted with GMP or dGMP in a molar ratio 1:3.5 introduced with a NaClO4 solution in D2O (0.33 mL, 100 mM). The reaction mixture was immediately transferred into an NMR tube and ^1H NMR data were collected every hour for 66 h at 37 °C. The pH was measured immediately after the reaction mixture was prepared and at the end of the reaction at rt.

The subject of data set [4] is guanosine monophosphate (GMP). Briefly: Nucleotide binding experiment by 1H NMR, GMP. To be noted: molar ratio 1:3.5, 37 °C, 66 h, DMF-d7/D2O, compared to cisplatin.
Excerpt: as §1, §2

Data set [5] relates to A2780cis. Briefly: Cellular viability assay (resazurin / Alamar Blue, 72 h), cisplatin-resistant variant. Conditions: 72 h at 37 °C, compared to cisplatin, result in words. (In general: The colour change of resazurin is a common sign of viable cells or microbes.)
Data set [6] relates to human ovarian cancer cell line A2780. Briefly: Cellular viability assay (resazurin / Alamar Blue, 72 h). To be noted: A2780, 72 h at 37 °C, compared to cisplatin; result in words.
The nature of data set [7]: Solubility of the complexes in solvents.

For the compound `N.N.O=C([O-])C1(C(=O)[O-])CCC1.[Pt+2]` [Carboplatin], the “increase in concentration to achieve the same effect” value in data set [1] is given as 20-40 fold. On to `N.N.[Cl][Pt][Cl]` [Cisplatin, cis-dichlorodiamineplatinum(II)], for which, in data set [2], the cure rate is recorded as 90%. Turning to “cis-[1,2-diaminodiamantane]dichlorideplatinum(II) [(R,R)-1]”, the “rate of bisadduct formation” value in data set [3] and in data set [4] was “faster with (R,R)-1 than with cisplatin” throughout.

For the compound “cis-[1,2-diaminodiamantane]dichlorideplatinum(II) [(S,S)-1]”, the “rate of bisadduct formation” value in data set [3] was “faster than for (R,R)-1 and cisplatin”. Besides, the cytotoxicity entry in data set [5] and in data set [6] was “lowest efficacy” throughout. As for “cis-[1,2-diaminodiamantane]dichlorideplatinum(II) [compound 1]”, the solubility result in data set [7] (in DMF) is on record as “good solubility”; in data set [7] (in methanol) it was “somewhat soluble”. Regarding “cis-[1,2-diaminodiamantane]oxalatoplatinum(II) [(S,S)-2]”, the solubility result in data set [7] ([…]) is “insoluble”.

Source of the values: EP3795574A1, “SYNTHESIS AND USAGE OF 1,2-DIAMINODIAMANTANE PLATINUM(II) COMPLEXES” (Justus-Liebig-Universität Gießen, priority 2019, dated 2021).
